Consider 29 compounds from ChEMBL document CHEMBL3745704, “Novel nonsecosteroidal VDR ligands with phenyl-pyrrolyl pentane skeleton for cancer therapy” (Eur J Med Chem, 2016).

Data set [1] is described as follows: Antipoliferative activity against human Caco2 cells after 48 hrs by MTT assay. Conditions: Caco-2, 48 h. Format: functional, cell-based. A general note: Formazan colour is commonly taken as a measure of viable cells.
A short description of data set [2]: Antipoliferative activity against human PC3 cells after 48 hrs by MTT assay. Format: functional, cell-based. Conditions: PC-3, 48 h.
The subject of another data set is HepG2. Nature of the data set: Antipoliferative activity against human HepG2 cells after 48 hrs by MTT assay. Conditions: HepG2, 48 h. Format: functional, cell-based.
Another data set addresses T1, Vitamin D3 receptor (Homo sapiens, UniProt P11473).
T1 sequence (P11473 whole entry): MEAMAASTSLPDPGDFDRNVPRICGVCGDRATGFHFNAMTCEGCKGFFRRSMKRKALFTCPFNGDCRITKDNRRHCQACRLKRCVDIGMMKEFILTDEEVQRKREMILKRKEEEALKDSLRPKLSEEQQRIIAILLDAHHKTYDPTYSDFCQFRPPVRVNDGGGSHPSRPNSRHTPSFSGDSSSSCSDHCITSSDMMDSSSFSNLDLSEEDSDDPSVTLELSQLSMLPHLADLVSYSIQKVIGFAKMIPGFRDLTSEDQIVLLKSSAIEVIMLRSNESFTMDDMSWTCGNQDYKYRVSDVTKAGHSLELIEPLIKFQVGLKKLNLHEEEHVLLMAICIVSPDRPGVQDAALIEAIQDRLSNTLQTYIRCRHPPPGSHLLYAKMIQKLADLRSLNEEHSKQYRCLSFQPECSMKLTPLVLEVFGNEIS
Nature of the data set: Binding affinity to vitamin D3 receptor (unknown origin) after 4 hrs using fluormone VDR red by polar screen VDR competitor assay.

For another data set, the system named is MCF7. Nature of the data set: Antipoliferative activity against human MCF7 cells after 48 hrs by MTT assay. Format: functional, cell-based. To be noted: MCF7, 48 h.
Data set [3] in a line: Cytotoxicity against human L02 cells after 48 hrs by MTT assay. Format: cell-based. Conditions: L02, 48 h.
Data set [4] deals with Rattus norvegicus. Nature of the data set: Toxicity in rat assessed as hypercalcemic activity at 10 mg/kg/day administered for 7 days. Format: organism-based. To be noted: in vivo, 168 h.
In data set [5] the test system is Rattus norvegicus. Nature of the data set: Toxicity in rat assessed as hypercalcemic activity at 0.5 mg/kg/day administered for 7 days. Format: organism-based. To be noted: in vivo, 168 h.
Data set [6] deals with Rattus norvegicus. Description: Toxicity in rat assessed as hypercalcemic activity at 30 mg/kg/day administered for 7 days. It counts as organism-based. Conditions: in vivo, 168 h.
Data set [7] concerns Rattus norvegicus. Nature of the data set: Toxicity in rat assessed as serum calcium level at 0.5 ug/kg/day administered for 7 days (reference value: 7.25 mg/dl). Conditions: in vivo, 0.0005 mg/kg, 168 h. It counts as organism-based.

What is called IC50 is the point on the concentration scale where inhibition reaches its midpoint. Lower therefore signals inhibition by little substance. Regarding `CCn1c(C(=O)NCC(OC)OC)ccc1C(CC)(CC)c1ccc(OCC(O)C(C)(C)C)c(C)c1` (configuration not stated), the IC50 is over 50000 nM in data set [1]; 14600 nM in data set [2]; 23200 nM with HepG2; 5230 nM at Vitamin D3 receptor; over 50000 nM with MCF7; 22200 nM in data set [3].
Take `CCn1c(C(=O)NCCN)ccc1C(CC)(CC)c1ccc(OCC(=O)C(C)(C)C)c(C)c1`: the IC50 in data set [1] was determined as 1900 nM; in data set [2] it was 480 nM; in the data set on HepG2, 180 nM; on Vitamin D3 receptor, 1010 nM; in the data set on MCF7 it was 75 nM; in data set [3], 2500 nM.
Regarding `CCN(CC)CCNC(=O)c1ccc(C(CC)(CC)c2ccc(OCC(=O)C(C)(C)C)c(C)c2)n1CC`, the IC50 in data set [1] came out at 1600 nM; in [2], 30 nM; with HepG2 it was 620 nM; with MCF7, 690 nM; in data set [3], 2500 nM.
Consider `CCOc1ccc(NC(=O)c2ccc(C(CC)(CC)c3ccc(OCC(O)C(C)(C)C)c(C)c3)n2CC)cc1` (configuration not stated), for which the IC50 on Vitamin D3 receptor worked out at 9250 nM.
On to `CCn1c(C(=O)Oc2ccc(CCO)cc2)ccc1C(CC)(CC)c1ccc(OCC(O)C(C)(C)C)c(C)c1` (configuration not stated), for which the IC50 in data set [1] was over 50000 nM; in data set [2] it was 6300 nM; with HepG2, over 50000 nM; in the data set with MCF7, over 50000 nM; in [3] it was 22700 nM.
Regarding `CCn1c(C(=O)N(C)CC(=O)O)ccc1C(CC)(CC)c1ccc(OCC(=O)C(C)(C)C)c(C)c1`, the IC50 in data set [1] stood at 35900 nM; in data set [2], 18400 nM; in the data set on HepG2, 25200 nM; with MCF7, 28600 nM; in data set [3] it was 8700 nM.
For `CCn1c(C(=O)NCCCN(C)C)ccc1C(CC)(CC)c1ccc(OCC(=O)C(C)(C)C)c(C)c1` the same measures were 1400 nM, 1600 nM, 960 nM, 340 nM and 670 nM.
For `C=CCN(C)C(=O)c1ccc(C(CC)(CC)c2ccc(OCC(O)C(C)(C)C)c(C)c2)n1CC` (configuration not stated) the same measures were over 50000 nM, 25900 nM, over 50000 nM, over 50000 nM and 6300 nM.
For `CCn1c(C(=O)OCc2ccc(F)cc2)ccc1C(CC)(CC)c1ccc(OCC(O)C(C)(C)C)c(C)c1` (configuration not stated) the same measures were over 50000 nM, over 50000 nM, over 50000 nM, over 50000 nM and 14900 nM.
On to `CCn1c(C(=O)NCCN)ccc1C(CC)(CC)c1ccc(OCC(O)C(C)(C)C)c(C)c1` (configuration not stated), for which the IC50 in data set [1] turned out to be 1000 nM; in data set [2], 940 nM; in the data set with HepG2, 176 nM; at Vitamin D3 receptor, 194 nM; in the data set with MCF7, 5.9 nM; in data set [3], 2400 nM. In addition, the Activity entry in the data set with Rattus norvegicus [4], in the data set with Rattus norvegicus [5] and with Rattus norvegicus [6] was “Non-toxic” each time.
On to `C#CC(C)OC(=O)c1ccc(C(CC)(CC)c2ccc(OCC(O)C(C)(C)C)c(C)c2)n1CC` (configuration not stated), for which the IC50 in data set [1] was over 50000 nM; in data set [2], 38200 nM; in the data set with HepG2, over 50000 nM; in the data set on MCF7, over 50000 nM; in data set [3], 23700 nM.
On to `CCN(CC)CCCNC(=O)c1ccc(C(CC)(CC)c2ccc(OCC(O)C(C)(C)C)c(C)c2)n1CC` (configuration not stated), for which the IC50 came out at 1800 nM in data set [1]; 2500 nM in [2]; 1100 nM in the data set with HepG2; 71.1 nM on Vitamin D3 receptor; 190 nM with MCF7; 2500 nM in [3].
With `CCn1c(C(=O)NCCN(C)C)ccc1C(CC)(CC)c1ccc(OCC(=O)C(C)(C)C)c(C)c1`, the IC50 in data set [1] is 1600 nM; in data set [2], 2300 nM; in the data set on HepG2, 2300 nM; in the data set with MCF7, 520 nM; in data set [3], 2500 nM.
For `CCn1c(C(=O)N(C)CCC#N)ccc1C(CC)(CC)c1ccc(OCC(O)C(C)(C)C)c(C)c1` (configuration not stated), the IC50 was over 50000 nM in data set [1]; 1700 nM in data set [2]; over 50000 nM in the data set on HepG2; over 50000 nM in the data set with MCF7; 14900 nM in [3].
Consider `CCN(CC)CCNC(=O)c1ccc(C(CC)(CC)c2ccc(OCC(O)C(C)(C)C)c(C)c2)n1CC` (configuration not stated), for which the IC50 in [1] is 2310 nM; in data set [2], 220 nM; in the data set with HepG2, 490 nM; in the data set on MCF7 it was 690 nM; in data set [3], 2500 nM.
Consider `C=C1/C(=C\C=C2/CCC[C@]3(C)[C@@H]([C@H](C)CCCC(C)(C)O)CC[C@@H]23)C[C@@H](O)C[C@@H]1O` [CALCITRIOL], for which, in the data set on Rattus norvegicus [7], the Activity came to 13.11 mg/dL.
As to `CC[C@@H](C)[C@H](NC(=O)c1ccc(C(CC)(CC)c2ccc(OCC(O)C(C)(C)C)c(C)c2)n1CC)C(=O)O` (some centres not stated), the IC50 is 3400 nM in data set [1]; 1900 nM in [2]; 127 nM with HepG2; 389 nM on Vitamin D3 receptor; 2000 nM in the data set on MCF7; 1400 nM in data set [3].
For the compound `C#CCNC(=O)c1ccc(C(CC)(CC)c2ccc(OCC(O)C(C)(C)C)c(C)c2)n1CC` (configuration not stated), the IC50 in data set [1] is 39100 nM; in data set [2], 16200 nM; with HepG2, over 50000 nM; at Vitamin D3 receptor it was over 10000 nM; in the data set with MCF7, over 50000 nM; in data set [3], 4400 nM.
Take `CCn1c(C(=O)N(C)CC(=O)O)ccc1C(CC)(CC)c1ccc(OCC(O)C(C)(C)C)c(C)c1` (configuration not stated): the IC50 in data set [1] came out at 31900 nM; in data set [2] it was 23900 nM; in the data set with HepG2, 17000 nM; in the data set with MCF7 it was 25400 nM; in data set [3], 32600 nM.
Consider `CCN(CC)CCCNC(=O)c1ccc(C(CC)(CC)c2ccc(OCC(=O)C(C)(C)C)c(C)c2)n1CC`, for which the IC50 came to 1000 nM in data set [1]; 1800 nM in data set [2]; 180 nM with HepG2; 863 nM on Vitamin D3 receptor; 530 nM in the data set on MCF7; 2300 nM in data set [3].
Turning to `CCn1c(C(=O)NCCCN(C)C)ccc1C(CC)(CC)c1ccc(OCC(O)C(C)(C)C)c(C)c1` (configuration not stated), the IC50 in data set [1] was 1900 nM; in data set [2], 3100 nM; with HepG2 it was 360 nM; on Vitamin D3 receptor, 197 nM; in the data set with MCF7 it was 490 nM; in [3], 470 nM.
For the compound `CCn1c(C(=O)N(CCC#N)CCC#N)ccc1C(CC)(CC)c1ccc(OCC(O)C(C)(C)C)c(C)c1` (configuration not stated), the IC50 in data set [1] is 7100 nM; in [2], 7800 nM; with HepG2, 42000 nM; on Vitamin D3 receptor, over 10000 nM; with MCF7, 480 nM; in data set [3], 1700 nM.
As for `CCC(CC)(c1ccc(OCC(=O)C(C)(C)C)c(C)c1)c1ccc(OCC(=O)C(C)(C)C)c(C)c1`, the IC50 was 16900 nM in data set [1]; over 50000 nM in data set [2]; over 50000 nM in the data set on HepG2; 7800 nM in the data set on MCF7; 5100 nM in [3]. Moreover, in the data set with Rattus norvegicus [6], the Activity entry is given as “Non-toxic”.
For `CCn1c(C(=O)NCCCN2CCOCC2)ccc1C(CC)(CC)c1ccc(OCC(O)C(C)(C)C)c(C)c1` (configuration not stated), the half-inhibitory concentration (IC50) in [1] was found to be 5900 nM; in [2], 7.9 nM; in the data set on HepG2, 1290 nM; on Vitamin D3 receptor, 1190 nM; with MCF7, 2070 nM; in data set [3], 810 nM. Also, the Activity result in the data set on Rattus norvegicus [4], in the data set with Rattus norvegicus [5] and in the data set with Rattus norvegicus [6] was “Non-toxic” throughout.
Take `CCOC(=O)CN(C)C(=O)c1ccc(C(CC)(CC)c2ccc(OCC(O)C(C)(C)C)c(C)c2)n1CC` (configuration not stated): the IC50 in [1] was 12200 nM; in data set [2], 25500 nM; in the data set on HepG2, over 50000 nM; in the data set on MCF7, 9200 nM; in data set [3], 10100 nM.
Turning to `CCn1c(C(=O)NCCCN2CCOCC2)ccc1C(CC)(CC)c1ccc(OCC(=O)C(C)(C)C)c(C)c1`, the IC50 worked out at 3600 nM in [1]; 11 nM in [2]; 1600 nM in the data set on HepG2; 3520 nM on Vitamin D3 receptor; 5200 nM in the data set on MCF7; 310 nM in data set [3].
As to `CC[C@@H](C)[C@H](NC(=O)c1ccc(C(CC)(CC)c2ccc(OCC(=O)C(C)(C)C)c(C)c2)n1CC)C(=O)O`, the IC50 in data set [1] was 4500 nM; in [2] it was 1600 nM; in the data set with HepG2 it was 247 nM; at Vitamin D3 receptor, 564 nM; in the data set on MCF7 it was 160 nM; in data set [3] it was 1500 nM.
Regarding `CCn1c(C(=O)N[C@@H](C)CO)ccc1C(CC)(CC)c1ccc(OCC(O)C(C)(C)C)c(C)c1` (some centres not stated), the IC50 is over 50000 nM in data set [1]; 17500 nM in [2]; 47600 nM with HepG2; 2800 nM in the data set with MCF7; 17300 nM in data set [3]. The Activity entry in the data set on Rattus norvegicus [6] is “Non-toxic”.
Turning to `CCn1c(C(=O)NCCN(C)C)ccc1C(CC)(CC)c1ccc(OCC(O)C(C)(C)C)c(C)c1` (configuration not stated), the IC50 in data set [1] worked out at 1300 nM; in [2], 1630 nM; in the data set with HepG2, 870 nM; in the data set with MCF7, 660 nM; in data set [3] it was 2600 nM.
